Experimental data published in patent US7612064B2, “Sulfopyrroles” (Takeda Pharmaceutical Company Limited, priority 2003, dated 2009).

Tests used:
MRC5 = assay: MTS proliferation assay; type: cell-based; settings: MRC5, 72 h
Method in brief: (§1)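 Four-point treatment (0.3–10 μM final) ran 72 h in complete medium, with the compound-containing addition holding no more than 5% DMSO. Metabolic activity was then developed with MTS reagent over 3 h and quantified by absorbance (492 nm).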

Jily = assay: MTS proliferation assay; type: cell-based; settings: 72 h
Method in brief: as §1

Jurkat = assay: MTS proliferation assay; type: cell-based, human; settings: 72 h
Method in brief: as §1

HeLa = assay: MTS proliferation assay; type: cell-based, human; settings: 72 h
Method in brief: as §1

[1] = Hoechst 33342 nuclear staining; type: cell-based; settings: for Hoechst 33342 nuclear staining score, H460: H460 cells; for Hoechst 33342 nuclear staining score, HeLa: HeLa cells; for Hoechst 33342 nuclear staining score, Jily: Jily cells; for Hoechst 33342 nuclear staining score, Jurkat: Jurkat cells; for Hoechst 33342 nuclear staining score, MRC5: MRC5 cells;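 for all read-outs here: apoptotic nuclei scored 0 none 1 weak under 50% of cells 2 strong over 50% of cells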
Method in brief: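 After a further 30 min incubation, plates were inspected on a standard inverted fluorescence microscope. The fraction of apoptotic nuclei and other apoptosis-specific morphology were scored as 0 for no activity, 1 for weak activity in less than 50% of the cells, and 2 for strong activity in more than 50% of the cells.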

| SMILES | IC50 (MRC5) [nM] | IC50 (Jily) [nM] | IC50 (Jurkat) [nM] | IC50 (HeLa) [nM] | Hoechst 33342 nuclear staining score, H460 ([1]; conc 0.1) | Hoechst 33342 nuclear staining score, H460 ([1]; conc 0.3) | Hoechst 33342 nuclear staining score, H460 ([1]; conc 1) | Hoechst 33342 nuclear staining score, H460 ([1]; conc 3) | Hoechst 33342 nuclear staining score, HeLa ([1]; conc 0.1) | Hoechst 33342 nuclear staining score, HeLa ([1]; conc 0.3) | Hoechst 33342 nuclear staining score, HeLa ([1]; conc 1) | Hoechst 33342 nuclear staining score, HeLa ([1]; conc 3) | Hoechst 33342 nuclear staining score, Jily ([1]; conc 0.1) | Hoechst 33342 nuclear staining score, Jily ([1]; conc 0.3) | Hoechst 33342 nuclear staining score, Jily ([1]; conc 1) | Hoechst 33342 nuclear staining score, Jily ([1]; conc 3) | Hoechst 33342 nuclear staining score, Jurkat ([1]; conc 0.1) | Hoechst 33342 nuclear staining score, Jurkat ([1]; conc 0.3) | Hoechst 33342 nuclear staining score, Jurkat ([1]; conc 1) | Hoechst 33342 nuclear staining score, Jurkat ([1]; conc 3) | further results |
| --- | --- | --- | --- | --- | --- | --- | --- | --- | --- | --- | --- | --- | --- | --- | --- | --- | --- | --- | --- | --- | --- |
| COc1cc(-c2cc(-c3cccnc3)cn2S(=O)(=O)c2ccc(C(F)(F)F)cc2)cc(OC)c1OC [Example 82] | > 1000 | > 1000 | < 1000 | > 1000 | 0 | 0 | 2 (strong activity comprising more than 50% of the cells) | 2 (strong activity comprising more than 50% of the cells) | 0 | 0 | 2 (strong activity comprising more than 50% of the cells) | 2 (strong activity comprising more than 50% of the cells) | 0 | 0 | 1 (weak activity comprising less than 50% of the cells) | 2 (strong activity comprising more than 50% of the cells) | 0 | 0 | 2 (strong activity comprising more than 50% of the cells) | 2 (strong activity comprising more than 50% of the cells) | Hoechst 33342 nuclear staining score, MRC5 ([1]; conc 0.1): 0; Hoechst 33342 nuclear staining score, MRC5 ([1]; conc 0.3): 0; Hoechst 33342 nuclear staining score, MRC5 ([1]; conc 1): 1 (weak activity comprising less than 50% of the cells); Hoechst 33342 nuclear staining score, MRC5 ([1]; conc 3): 1 (weak activity comprising less than 50% of the cells); Hoechst 33342 nuclear staining score, PBLs ([1]; conc 0.1): 0; Hoechst 33342 nuclear staining score, PBLs ([1]; conc 0.3): 0; Hoechst 33342 nuclear staining score, PBLs ([1]; conc 1): 0; Hoechst 33342 nuclear staining score, PBLs ([1]; conc 3): 0 |
| COc1cc(-c2cc(-c3cccnc3)cn2S(=O)(=O)c2ccc(Cl)cc2)cc(OC)c1OC [Example 81] | > 1000 | > 1000 | > 1000 | > 1000 | 0 | 0 | 0 | 2 (strong activity comprising more than 50% of the cells) | 0 | 0 | 0 | 1 (weak activity comprising less than 50% of the cells) | 0 | 0 | 0 | 1 (weak activity comprising less than 50% of the cells) | 0 | 0 | 0 | 2 (strong activity comprising more than 50% of the cells) | Hoechst 33342 nuclear staining score, MRC5 ([1]; conc 0.1): 0; Hoechst 33342 nuclear staining score, MRC5 ([1]; conc 0.3): 0; Hoechst 33342 nuclear staining score, MRC5 ([1]; conc 1): 0; Hoechst 33342 nuclear staining score, MRC5 ([1]; conc 3): 0; Hoechst 33342 nuclear staining score, PBLs ([1]; conc 0.1): 0; Hoechst 33342 nuclear staining score, PBLs ([1]; conc 0.3): 0; Hoechst 33342 nuclear staining score, PBLs ([1]; conc 1): 0; Hoechst 33342 nuclear staining score, PBLs ([1]; conc 3): 0 |
| COc1ccc(S(=O)(=O)n2cc(-c3ccc(N)nc3)cc2-c2cc(OC)ccc2OC)cc1 [Example 101] | < 1000 | < 200 | < 200 | < 1000 | 0 | 2 (strong activity comprising more than 50% of the cells) | 2 (strong activity comprising more than 50% of the cells) | 2 (strong activity comprising more than 50% of the cells) | 0 | 2 (strong activity comprising more than 50% of the cells) | 2 (strong activity comprising more than 50% of the cells) | 2 (strong activity comprising more than 50% of the cells) | 0 | 2 (strong activity comprising more than 50% of the cells) | 2 (strong activity comprising more than 50% of the cells) | 2 (strong activity comprising more than 50% of the cells) | 0 | 2 (strong activity comprising more than 50% of the cells) | 2 (strong activity comprising more than 50% of the cells) | 2 (strong activity comprising more than 50% of the cells) | Hoechst 33342 nuclear staining score, MRC5 ([1]; conc 0.1): 0; Hoechst 33342 nuclear staining score, MRC5 ([1]; conc 0.3): 2 (strong activity comprising more than 50% of the cells); Hoechst 33342 nuclear staining score, MRC5 ([1]; conc 1): 2 (strong activity comprising more than 50% of the cells); Hoechst 33342 nuclear staining score, MRC5 ([1]; conc 3): 2 (strong activity comprising more than 50% of the cells); Hoechst 33342 nuclear staining score, PBLs ([1]; conc 0.1): 0; Hoechst 33342 nuclear staining score, PBLs ([1]; conc 0.3): 0; Hoechst 33342 nuclear staining score, PBLs ([1]; conc 1): 0; Hoechst 33342 nuclear staining score, PBLs ([1]; conc 3): 0 |
| COc1ccc(S(=O)(=O)n2cc(-c3cncc(C(N)=O)c3)cc2-c2ccc(OC)cc2OC)cc1 [Example 106] | > 1000 | > 1000 | > 1000 | > 1000 | 0 | 0 | 1 (weak activity comprising less than 50% of the cells) | 2 (strong activity comprising more than 50% of the cells) | 0 | 0 | 1 (weak activity comprising less than 50% of the cells) | 2 (strong activity comprising more than 50% of the cells) | 0 | 0 | 1 (weak activity comprising less than 50% of the cells) | 2 (strong activity comprising more than 50% of the cells) | 0 | 0 | 2 (strong activity comprising more than 50% of the cells) | 2 (strong activity comprising more than 50% of the cells) | Hoechst 33342 nuclear staining score, MRC5 ([1]; conc 0.1): 0; Hoechst 33342 nuclear staining score, MRC5 ([1]; conc 0.3): 0; Hoechst 33342 nuclear staining score, MRC5 ([1]; conc 1): 0; Hoechst 33342 nuclear staining score, MRC5 ([1]; conc 3): 1 (weak activity comprising less than 50% of the cells); Hoechst 33342 nuclear staining score, PBLs ([1]; conc 0.1): 0; Hoechst 33342 nuclear staining score, PBLs ([1]; conc 0.3): 0; Hoechst 33342 nuclear staining score, PBLs ([1]; conc 1): 0; Hoechst 33342 nuclear staining score, PBLs ([1]; conc 3): 0 |
| COc1cc(-c2cc(-c3cccnc3)cn2S(=O)(=O)c2cccs2)cc(OC)c1OC [Example 90] | > 1000 | < 1000 | < 1000 | > 1000 | 0 | 0 | 0 | 2 (strong activity comprising more than 50% of the cells) | 0 | 0 | 0 | 2 (strong activity comprising more than 50% of the cells) | 0 | 0 | 1 (weak activity comprising less than 50% of the cells) | 1 (weak activity comprising less than 50% of the cells) | 0 | 0 | 2 (strong activity comprising more than 50% of the cells) | 2 (strong activity comprising more than 50% of the cells) | Hoechst 33342 nuclear staining score, MRC5 ([1]; conc 0.1): 0; Hoechst 33342 nuclear staining score, MRC5 ([1]; conc 0.3): 0; Hoechst 33342 nuclear staining score, MRC5 ([1]; conc 1): 0; Hoechst 33342 nuclear staining score, MRC5 ([1]; conc 3): 0; Hoechst 33342 nuclear staining score, PBLs ([1]; conc 0.1): 0; Hoechst 33342 nuclear staining score, PBLs ([1]; conc 0.3): 0; Hoechst 33342 nuclear staining score, PBLs ([1]; conc 1): 0; Hoechst 33342 nuclear staining score, PBLs ([1]; conc 3): 0 |
| COc1cc(-c2cc(-c3cncc(C(=O)NC(C)CO)c3)cn2S(=O)(=O)c2ccc(C)cc2)cc(OC)c1OC.Cl (stereo not drawn) [Example 63] | < 1000 | < 1000 | < 1000 | < 1000 | 0 | 0 | 0 | 0 | 0 | 0 | 0 | 2 (strong activity comprising more than 50% of the cells) | 0 | 0 | 0 | 0 | 0 | 0 | 2 (strong activity comprising more than 50% of the cells) | 2 (strong activity comprising more than 50% of the cells) | Hoechst 33342 nuclear staining score, MRC5 ([1]; conc 0.1): 0; Hoechst 33342 nuclear staining score, MRC5 ([1]; conc 0.3): 0; Hoechst 33342 nuclear staining score, MRC5 ([1]; conc 1): 0; Hoechst 33342 nuclear staining score, MRC5 ([1]; conc 3): 0; Hoechst 33342 nuclear staining score, PBLs ([1]; conc 0.1): 0; Hoechst 33342 nuclear staining score, PBLs ([1]; conc 0.3): 0; Hoechst 33342 nuclear staining score, PBLs ([1]; conc 1): 0; Hoechst 33342 nuclear staining score, PBLs ([1]; conc 3): 0 |
